Series [1] is described as follows: Plasma pharmacokinetics of probe drugs and metabolites in healthy male subjects.
The conditions of series [2]: both CYP2B6 probe drugs; cited from earlier work.
Series [3] concerns CYP2B6. The experiment in a line: Basel cocktail phenotyping of CYP2B6. The settings on record: plasma, geometric mean (90 % CI). The format is in vivo, human.
In a further series the test system is CYP2C9. The experiment in a line: Basel cocktail phenotyping of CYP2C9. The format is in vivo, human. To be noted: for [los]/[E3174]: plasma, geometric mean (90 % CI); for metabolic ratios at 6 h: the other subjects.
Another series has as its system p-glycoprotein (pgp). To be noted: cited from earlier work.
The subject of the next series is CYP2D6. The experiment in a line: Basel cocktail phenotyping of CYP2D6. Type of series: in vivo, human. To be noted: plasma, geometric mean (90 % CI).
The next series concerns CYP3A4. The experiment in a line: Basel cocktail phenotyping of CYP3A4. Type of series: in vivo, human. The settings on record: plasma, geometric mean (90 % CI).
Series [4] deals with CYP2C19. The experiment in a line: Basel cocktail phenotyping of CYP2C19. The settings on record: plasma, geometric mean (90 % CI). The format is in vivo, human.
Series [5] relates to CYP2B6. To be noted: cited from earlier work.
In series [6] the test system is CYP2C19. The settings on record: cited from earlier work.
In series [7] the test system is CYP2B6. To be noted: cited from earlier work. The source holds these as a separate data set.
A further series concerns CYP1A2. To be noted: cited from earlier work.
The mark [8] stands for this setting: 4 h, Cocktail + inducer (rifampicin).
Setting [9] is: 6 h, Cocktail + inducer (rifampicin).
[10] abbreviates: 8 h, Cocktail + inducer (rifampicin).
Setting [11] is: 2 h, Cocktail + inducer (rifampicin).

Here are results for 9 molecules from PMC4712254 (Clinical Pharmacokinetics, 2015).

The structures appear in SMILES notation. Marks after values point to notes of the source that are not given here.

On to `O=C1Nc2c(O)cc(Cl)cc2[C@@](C#CC2(O)CC2)(C(F)(F)F)O1` [8,14-dihydroxy-efavirenz], for which the “plasma concentrations after deglucuronidation” value in [1] (after deglucuronidation) was “lower than 6 ng/mL”. Also, the plasma concentrations result in [1] (without deglucuronidation) was “below the limit of quantification”.

For orientation: half-life means the time needed for the level to fall by half in the phase considered. On to `CC(NC(C)(C)C)C(=O)c1cccc(Cl)c1` (stereo not shown) [bupropion], for which the half-life in [2] is 50 to 70 h.

Turning to `O=C1Nc2ccc(Cl)cc2[C@@](C#CC2CC2)(C(F)(F)F)O1` [efavirenz], the “[efa]/[OH-efa]” value with CYP2B6 [3] (setting [8]) is 19.3 (17.9–21.3)***^a; in the series with CYP2B6 [3] (4 h, Cocktail + inhibitors) it was 84.1 (71.9–115.0)***; with CYP2B6 [3] (4 h, Cocktail alone (baseline)), 38.7 (34.8–48.5); in the series with CYP2B6 [3] (setting [9]) it was 23.1 (21.3–25.7)***^a; in the series on CYP2B6 [3] (6 h, Cocktail + inhibitors), 77.6 (69.3–94.2)***^a; in the series on CYP2B6 [3] (6 h, Cocktail alone (baseline)), 43.7 (39.5–51.3). Also, the “[efa]/[OH-efa]” value is on record as 27.7 (26.0–30.8)***^a in the series with CYP2B6 [3] (setting [10]); 88.7 (79.7–108.0)*** in the series with CYP2B6 [3] (8 h, Cocktail + inhibitors); 53.2 (47.8–62.6) in the series with CYP2B6 [3] (8 h, Cocktail alone (baseline)).

On to `CCCCc1nc(Cl)c(CO)n1Cc1ccc(-c2ccccc2-c2nn[nH]n2)cc1` [losartan], for which the “[los]/[E3174]” value with CYP2C9 (setting [11]) is 0.44 (0.37–0.96)**^b; in the series with CYP2C9 (2 h, Cocktail + inhibitors), 3.39 (2.66–4.62)ns^f; in the series on CYP2C9 (2 h, Cocktail alone (baseline)) it was 1.18 (1.17–2.99); in the series on CYP2C9 (setting [8]) it was 0.08 (0.06–0.16)**^a; with CYP2C9 (4 h, Cocktail + inhibitors) it was 1.17 (1.03–2.09)***; in the series with CYP2C9 (4 h, Cocktail alone (baseline)), 0.17 (0.14–0.37). The “[los]/[E3174]” value with CYP2C9 (setting [9]) is 0.06 (0.04–0.12)***^c; with CYP2C9 (6 h, Cocktail + inhibitors), 0.55 (0.47–1.01)***^a; with CYP2C9 (6 h, Cocktail alone (baseline)), 0.10 (0.08–0.19); in the series on CYP2C9 (setting [10]) it was 0.05 (0.04–0.07) ns^b; in the series on CYP2C9 (8 h, Cocktail + inhibitors) it was 0.24 (0.20–0.42)***; with CYP2C9 (8 h, Cocktail alone (baseline)) it was 0.05 (0.04–0.08). For the same molecule, the “metabolic ratios at 6 h” value is 0.04–0.11 with CYP2C9 (baseline) and 0.20–0.53 with CYP2C9 (inhibition). The “p-glycoprotein (pgp) substrate” value in the series on p-glycoprotein (pgp) is on record as “transported by p-glycoprotein”.

As to `COCCc1ccc(OCC(O)CNC(C)C)cc1` (stereo not shown) [metoprolol], the “[met]/[OH-met]” value in the series with CYP2D6 (setting [11]) was 1.83 (1.60–2.18) nt^d; with CYP2D6 (2 h, Cocktail alone (baseline)), 1.93 (1.56–2.47)^e; in the series with CYP2D6 (setting [8]) it was 2.02 (1.84–2.31) ns^a; in the series on CYP2D6 (4 h, Cocktail + inhibitors), 6.60 (5.90–7.85)***; in the series with CYP2D6 (4 h, Cocktail alone (baseline)), 2.20 (2.00–2.54); in the series with CYP2D6 (setting [9]), 1.88 (1.69–2.20)*^a. For the same molecule, the “[met]/[OH-met]” value in the series with CYP2D6 (6 h, Cocktail + inhibitors) was 8.99 (8.33–10.01)***; in the series with CYP2D6 (6 h, Cocktail alone (baseline)) it was 2.36 (2.16–2.69)^a; with CYP2D6 (setting [10]), 1.67 (1.51–1.93) ns^b; in the series on CYP2D6 (8 h, Cocktail + inhibitors) it was 9.90(9.06–11.39)***; with CYP2D6 (8 h, Cocktail alone (baseline)), 2.11 (1.91–2.44).

Regarding `Cc1ncc2n1-c1ccc(Cl)cc1C(c1ccccc1F)=NC2` [midazolam], the “[mid]/[OH-mid]” value is 1.73 (1.54–2.11) ns^a in the series with CYP3A4 (setting [11]); 3.46 (3.10–4.29)*** in the series on CYP3A4 (2 h, Cocktail + inhibitors); 1.31 (1.16–1.77) with CYP3A4 (2 h, Cocktail alone (baseline)); 1.51 (1.33–1.97) with CYP3A4 (4 h, Cocktail alone (baseline)).

Take `COc1ccc2[nH]c([S+]([O-])Cc3ncc(C)c(OC)c3C)nc2c1` (stereo not shown) [omeprazole]: the “[ome]/[OH-ome]” value was 0.25 (0.22–0.35)**^a in the series on CYP2C19 [4] (setting [11]); 25.8 (22.7–33.2)*** in the series on CYP2C19 [4] (2 h, Cocktail + inhibitors); 1.08 (0.90–1.46) in the series with CYP2C19 [4] (2 h, Cocktail alone (baseline)); 0.18 (0.15–0.24)***^a with CYP2C19 [4] (setting [8]); 18.1 (16.0–22.5)*** in the series on CYP2C19 [4] (4 h, Cocktail + inhibitors); 0.49 (0.38–0.86) in the series with CYP2C19 [4] (4 h, Cocktail alone (baseline)). In addition, the “[ome]/[OH-ome]” value in the series with CYP2C19 [4] (6 h, Cocktail + inhibitors) is 14.6 (12.5–18.8)nt^a; in the series on CYP2C19 [4] (6 h, Cocktail alone (baseline)), 0.28 (0.18–0.55)^b.

Take `Fc1ccc([C@@H]2CCNC[C@H]2COc2ccc3c(c2)OCO3)cc1` [paroxetine]: the “CYP2B6 inhibition in vitro” value with CYP2B6 [5] is “CYP2B6 inhibitor in vitro”.

Consider `CO[C@H]1/C=C/O[C@@]2(C)Oc3c(C)c(O)c4c(O)c(c(/C=N/N5CCN(C)CC5)c(O)c4c3C2=O)NC(=O)/C(C)=C\C=C\[C@H](C)[C@H](O)[C@@H](C)[C@@H](O)[C@@H](C)[C@H](OC(C)=O)[C@@H]1C` [rifampicin], for which the “in vivo inducer class, 2C19” value in the series with CYP2C19 [6] is reported as “moderate inducer (50–80 % decrease in AUC)”. In addition, in the series on CYP2B6 [7], the “in vivo inducer class, CYP2B6” value is reported as “moderate inducer (50–80 % decrease in AUC)”. Moreover, the “concentrations in one subject compared with the other subjects” value in series [1] (subject excluded from induction data, higher) was “approximately 100 fold”. In the series on CYP1A2, the “in vivo inducer class, CYP1A2” value is “weak inducer”.
